Read-outs that look alike come from different tables or passages of the source.
Legend:
[1] = Rat B/P (brain disposition); format: in vivo, male Sprague-Dawley rats; settings: male, Sprague-Dawley; for concentration at 0.5 h / Kp uu at 0.5 h / Kp at 0.5 h: time point 0.5 h; for concentration at 0.5 h / Kp at 0.5 h / concentration at 1 h / Kp at 1 h: mean ± stdev; for Kp uu at 0.5 h / Kp at 0.5 h / Kp uu at 1 h / Kp at 1 h: brain/plasma; for Kp uu at 0.5 h / Kp uu at 1 h: fubrain from brain homogenate; for Kp at 0.5 h / Kp at 1 h: n = 3; for concentration at 1 h / Kp uu at 1 h / Kp at 1 h: time point 1.0 h
Procedure: Brain disposition was evaluated for each compound in male Sprague-Dawley rats (n=3, standard body weight). […] Isolated plasma and brain homogenates were extracted by standard protein precipitation in acetonitrile, containing internal standard, followed by LC-MS/MS analysis using an optimized analytical method. Concentrations of test compound in plasma and brain were quantified against matrix matched calibration standards. The total plasma and brain concentration data are presented in Table 7 alongside the calculated brain Kp (total brain concentration:total plasma concentration ratio).

[2] = biological target: T1, LRRK2 G2019S (Homo sapiens, UniProt Q5S007, G2019S); assay: LRRK2 G2019S kinase activity assay (LanthaScreen TR-FRET); format: biochemical; settings: 250 pM LRRK2 G2019S, 1.3 mM ATP, 3 h at 30° C.; n≥2 tests
T1 construct: purchased Invitrogen (Life Technologies Corporation)
Procedure: (§1) LRRK2 kinase activity was measured using a LanthaScreen kinase activity assay available from Invitrogen (Life Technologies Corporation). The assay is a homogeneous time resolved-fluorescence resonance energy transfer (TR-FRET) assay that measures phosphorylation of a fluorescein-labelled peptide substrate Fluorescein-ERM LRRKtide obtainable from Life Technologies Corporation as a result of LRRK2 kinase activity. The phosphorylated peptide is recognized by a terbium-labelled phospho-specific anti-LRRKtide antibody (pLRRKtide antibody), obtainable from Life Technologies Corporation and, subsequently, the phosphorylated LRRKtide can be quantified by the extent of TR-FRET between the terbium donor and fluorescein acceptor. The LRRK2 kinase was obtained from Invitrogen (Life Technologies Corporation) and comprises residue 970 to 2527 of the full length human wild-type LRRK2 kinase, or a similar sequence with the G2019S mutation. As discussed above, this mutation increases the kinase activity relative to the wild type. The kinase reactions were performed in a 20 μL volume in 384-well plates. […] The mixture was further incubated for 30 minutes at RT. […] The measurement was repeated 30 times for fluorescein and 30 times for terbium emission with a 1000 μs time window between repeats. TR-FRET measurements were performed on a Biotek Synergy plate. The TR-FRET signal was calculated as the emission-ratio at 520 nm over 495 nm. The TR-FRET ratio readout for test compounds was normalized to 0% inhibition corresponding to TR-FRET ratio measured in control wells with no inhibition of the kinase activity and 100% inhibition corresponding to TR-FRET ratio measured in control wells with inhibitor. […] C is the IC50 value and D is the Hill slope coefficient. IC50 estimates were obtained from independent experiment and the logarithmic average was calculated.

[3] = Free fraction in plasma (equilibrium dialysis); format: in vitro ADME, male Sprague-Dawley rat; settings: rat plasma, 1 μM, 5 h at 37° C.
Procedure: The free fractions in male Sprague-Dawley rat or female Gottingen minipig plasma (fuplasma) and rat brain homogenate (fubrain) were determined by equilibrium dialysis using 96-well HTD-dialysis plates with dialysis membranes (molecular weight cut off 12-14 KDa). One side of the HTD-dialysis plate was loaded with matrix (plasma or brain homogenate) and the other side with buffer (100 mM sodium phosphate buffer, pH 7.4). Test compounds were dissolved in DMSO then spiked (5 μL of 0.2 mM) into blank (995 μL) plasma or diluted brain homogenate (1:4 ratio in phosphate buffer) giving a final nominal concentration 1 μM (≤0.5% DMSO). The matrices were loaded into respective chambers and equilibrated against phosphate buffer for 5 h at 37° C. (in a humidified air incubator with 5% CO2 with shaking). Samples from both chambers (buffer and plasma or brain homogenate) were aliquoted to fresh 96-well polypropylene plates then matrix matched using an equal volume of opposite blank matrix before extraction with cold solvent (3 volumes acetonitrile) containing an appropriate bioanalytical internal standard. After centrifugation (20 min, 3200 g, 4° C.) the supernatants were diluted with appropriate volumes of water and compound concentrations were quantified by LC/MS-MS against matrix matched calibration standards. The fuplasma and fubrain were calculated as a percent free according to equation 4 below.
Where [F] is the analyte concentration on the buffer (receiver) side of the membrane; [T] is the analyte concentration on the plasma or brain (donor) side of the membrane; [TO] is the analyte concentration in the plasma or brain sample at time zero; D is matrix dilution factor which is determined as 4 for brain matrix and 1 for plasma matrix in these assays.

[4] = biological target: T2, LRRK2 WT (Homo sapiens, UniProt Q5S007); assay: LRRK2 wild-type kinase activity assay (LanthaScreen TR-FRET); format: biochemical; settings: 1 nM LRRK2 WT, 1.3 mM ATP, 3.5 h at 30° C.; n≥2 tests
T2 construct: comprises residue 970 to 2527 of the full length human wild-type LRRK2 kinase; purchased Invitrogen (Life Technologies Corporation)
Procedure: as §1

[5] = brain, oral gavage 5 mg/kg, n = 3, read-out: Total brain concentration
[6] = plasma, oral gavage 5 mg/kg, n = 3, read-out: Total plasma concentration
[7] = brain, oral gavage 10 mg/kg, n = 3, read-out: Total brain concentration
[8] = po, 10 mg/kg, oral gavage 10 mg/kg
[9] = plasma, oral gavage 10 mg/kg, n = 3, read-out: Total plasma concentration

T1 sequence (Q5S007 970-2527 G2019S): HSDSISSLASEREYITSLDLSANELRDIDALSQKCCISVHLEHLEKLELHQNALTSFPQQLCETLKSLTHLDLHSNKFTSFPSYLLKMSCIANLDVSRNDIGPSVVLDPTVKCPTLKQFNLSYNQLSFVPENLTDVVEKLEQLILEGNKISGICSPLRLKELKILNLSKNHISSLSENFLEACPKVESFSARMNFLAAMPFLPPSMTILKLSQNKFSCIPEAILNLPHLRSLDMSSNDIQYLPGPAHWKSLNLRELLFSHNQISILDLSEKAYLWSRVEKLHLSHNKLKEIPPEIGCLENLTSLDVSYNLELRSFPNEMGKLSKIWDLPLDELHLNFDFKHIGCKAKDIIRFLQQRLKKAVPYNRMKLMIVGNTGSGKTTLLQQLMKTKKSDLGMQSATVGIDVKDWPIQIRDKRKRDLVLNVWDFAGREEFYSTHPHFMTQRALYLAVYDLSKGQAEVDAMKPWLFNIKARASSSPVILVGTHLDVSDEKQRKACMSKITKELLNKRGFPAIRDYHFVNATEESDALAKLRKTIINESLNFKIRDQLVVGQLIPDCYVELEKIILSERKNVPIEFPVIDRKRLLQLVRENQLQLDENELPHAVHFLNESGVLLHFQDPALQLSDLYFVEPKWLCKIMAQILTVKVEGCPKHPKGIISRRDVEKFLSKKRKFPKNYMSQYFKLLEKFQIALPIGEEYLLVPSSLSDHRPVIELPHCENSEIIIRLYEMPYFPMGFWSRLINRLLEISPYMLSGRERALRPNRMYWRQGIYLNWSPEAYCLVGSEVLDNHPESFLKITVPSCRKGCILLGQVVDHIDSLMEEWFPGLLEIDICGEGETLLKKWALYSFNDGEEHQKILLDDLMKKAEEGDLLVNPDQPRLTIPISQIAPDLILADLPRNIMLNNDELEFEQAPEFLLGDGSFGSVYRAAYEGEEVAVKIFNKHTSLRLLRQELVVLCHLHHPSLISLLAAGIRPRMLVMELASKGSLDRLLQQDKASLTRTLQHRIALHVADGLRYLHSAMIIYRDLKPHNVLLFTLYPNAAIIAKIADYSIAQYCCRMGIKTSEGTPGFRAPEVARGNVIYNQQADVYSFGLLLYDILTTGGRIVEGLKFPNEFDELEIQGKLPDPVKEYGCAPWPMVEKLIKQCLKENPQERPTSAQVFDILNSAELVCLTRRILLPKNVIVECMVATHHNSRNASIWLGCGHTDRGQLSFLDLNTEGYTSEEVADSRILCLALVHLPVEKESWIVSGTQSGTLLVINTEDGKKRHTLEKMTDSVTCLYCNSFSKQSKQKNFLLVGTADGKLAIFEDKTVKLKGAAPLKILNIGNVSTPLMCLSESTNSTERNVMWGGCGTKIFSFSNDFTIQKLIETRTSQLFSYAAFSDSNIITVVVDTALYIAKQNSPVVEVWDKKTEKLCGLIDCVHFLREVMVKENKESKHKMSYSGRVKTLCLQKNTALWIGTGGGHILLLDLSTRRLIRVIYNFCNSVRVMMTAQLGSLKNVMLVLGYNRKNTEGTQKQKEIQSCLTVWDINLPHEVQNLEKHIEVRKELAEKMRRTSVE
T2 sequence (Q5S007 970-2527): as the sequence (Q5S007 970-2527 G2019S) above, with S1050G counted along it

Row | Compound | IC50 [2] [nM] | fuplasma (% free) [3] [% free] | IC50 [4] [nM] | further results
1 | Cc1c2c(nn1[C@@H]1CC1(F)F)OCCCn1nc(Cl)c3cnc(nc31)N2 (single isomer, unassigned) [Example 40, (+)-(R) or (S)-8-Chloro-2-(2,2-difluorocyclopropyl)-3-methyl-2,4,12,13-tetrahydro-11H-5,7-(azenometheno)dipyrazolo[3,4-b:5′,1′-g][1]oxa[4,6,8]triazacycloundecine] | 12 | 12.7 | 28 | concentration at 0.5 h [1, 5]: 138 ± 12 ng/g; Kp uu at 0.5 h ([1]; oral gavage 5 mg/kg): 0.72 ± 0.08; Kp at 0.5 h ([1]; oral gavage 5 mg/kg): 1.93 ± 0.22; concentration at 0.5 h [1, 6]: 72 ± 8 ng/mL
2 | Cc1c2c(nn1[C@H]1CCOC[C@]1(C)F)OCCCn1nc(Cl)c3cnc(nc31)N2 (single isomer, unassigned) [Example 47, (+)-8-Chloro-2-((3R,4S) or (3S,4R)-3-Fluoro-3-methyltetrahydro-2H-pyran-4-yl)-3-methyl-2,4,12,13-tetrahydro-11H-5,7-(azenometheno)dipyrazolo[3,4-b:5′,1′-g][1]oxa[4,6,8]triazacycloundecine] | 3.1 | 24.8 | 13 | concentration at 0.5 h [1, 5]: 235 ± 119 ng/g; Kp uu at 0.5 h ([1]; oral gavage 5 mg/kg): 0.57 ± 0.17; Kp at 0.5 h ([1]; oral gavage 5 mg/kg): 2.69 ± 0.83; concentration at 0.5 h [1, 6]: 83 ± 27 ng/mL
3 | Cc1c2c(nn1[C@@H]1CCOC3(CC3)C1)OCCCn1nc(Cl)c3cnc(nc31)N2 (single isomer, unassigned) [Example 53, (+)-(R) or (S)-8-Chloro-3-methyl-2-(4-oxaspiro[2.5]octan-7-yl)-2,4,12,13-tetrahydro-11H-5,7-(azenometheno)dipyrazolo[3,4-b:5′,1′-g][1]oxa[4,6,8]triazacycloundecine] | 1.3 | 17.1 | 3.2 | concentration at 1 h [1, 5]: 363 ± 138 ng/g; Kp uu at 1 h ([1]; oral gavage 5 mg/kg): 0.65 ± 0.06; Kp at 1 h ([1]; oral gavage 5 mg/kg): 1.77 ± 0.16; concentration at 1 h [1, 6]: 203 ± 67 ng/mL
4 | Cc1c2c(nn1C1CCOCC1)OCCCn1nc(C(F)(F)F)c3cnc(nc31)N2 [Example 5, 3-Methyl-2-(tetrahydro-2H-pyran-4-yl)-8-(trifluoromethyl)-2,4,12,13-tetrahydro-11H-5,7-(azenometheno)dipyrazolo[3,4-b:5′,1′-g][1]oxa[4,6,8]triazacycloundecine] | 7.4 | 32.2 | 23 | concentration at 1 h [1, 7]: 744 ± 281 ng/g; Kp at 1 h ([1]; oral gavage 10 mg/kg): 2.19 ± 0.25; Kp uu at 1 h [1, 8]: 0.29 ± 0.03; concentration at 1 h [1, 9]: 336 ± 96 ng/mL
5 | Cc1c2c(nn1C1CCOCC1)OCCCn1nc(Br)c3cnc(nc31)N2 [Example 6, 8-Bromo-3-methyl-2-(tetrahydro-2H-pyran-4-yl)-2,4,12,13-tetrahydro-11H-5,7-(azenometheno)dipyrazolo[3,4-b:5′,1′-g][1]oxa[4,6,8]triazacycloundecine] |  | 34.3 |  | concentration at 1 h [1, 7]: 1460 ± 244 ng/g; Kp at 1 h ([1]; oral gavage 10 mg/kg): 1.97 ± 0.27; Kp uu at 1 h [1, 8]: 0.44 ± 0.06; concentration at 1 h [1, 9]: 738 ± 24 ng/mL
6 | Cc1c2c(nn1C1CCOCC1)OCCCn1nc(C3CC3)c3cnc(nc31)N2 [Example 7, 8-Cyclopropyl-3-methyl-2-(tetrahydro-2H-pyran-4-yl)-2,4,12,13-tetrahydro-11H-5,7-(azenometheno)dipyrazolo[3,4-b:5′,1′-g][1]oxa[4,6,8]triazacycloundecine] | 63 | 28.7 | 210 | concentration at 1 h [1, 7]: 949 ± 463 ng/g; Kp uu at 1 h ([1]; oral gavage 10 mg/kg): 0.28 ± 0.1; Kp at 1 h ([1]; oral gavage 10 mg/kg): 0.63 ± 0.23; concentration at 1 h [1, 9]: 1550 ± 527 ng/mL
7 | Cc1c2c(nn1C1CCC(F)(F)CC1)OCCCn1nc(Cl)c3cnc(nc31)N2 [Example 26, 8-Chloro-2-(4,4-difluorocyclohexyl)-3-methyl-2,4,12,13-tetrahydro-11H-5,7-(azenometheno)dipyrazolo[3,4-b:5′,1′-g][1]oxa[4,6,8]triazacycloundecine] | 5.9 |  | 21 | 
8 | Cc1c2c(nn1C1CC3(COC3)C1)OCCCn1nc(Cl)c3cnc(nc31)N2 [Example 34, 8-Chloro-3-methyl-2-(2-oxaspiro[3.3]heptan-6-yl)-2,4,12,13-tetrahydro-11H-5,7-(azenometheno)dipyrazolo[3,4-b:5′,1′-g][1]oxa[4,6,8]triazacycloundecine] | 5.7 |  | 18 | 
9 | [2H]C([2H])([2H])c1c2c(nn1C1CCOCC1)OC([2H])([2H])C([2H])([2H])C([2H])([2H])n1nc(Cl)c3cnc(nc31)N2 [Example 35, 8-Chloro-3-(methyl-d3)-2-(tetrahydro-2H-pyran-4-yl)-2,4,12,13-tetrahydro-11H-5,7-(azenometheno)dipyrazolo[3,4-b:5′,1′-g][1]oxa[4,6,8]triazacycloundecine-11,11,12,12,13,13-d6] | 5.3 |  | 15 | 
10 | Cc1c2c(nn1C1(C#N)CC1)OCCCn1nc(Cl)c3cnc(nc31)N2 [Example 36, 1-(8-Chloro-3-methyl-12,13-dihydro-11H-5,7-(azenometheno)dipyrazolo[3,4-b:5′,1′-g][1]oxa[4,6,8]triazacycloundecin-2(4H)-yl)cyclopropane-1-carbonitrile] | 7.2 |  | 23 | 
11 | [2H]C1([2H])CCOc2nn(C3CCOCC3)c(C)c2Nc2ncc3c(Cl)nn1c3n2 [Example 45, 8-Chloro-3-methyl-2-(tetrahydro-2H-pyran-4-yl)-2,4,12,13-tetrahydro-11H-5,7-(azenometheno)dipyrazolo[3,4-b:5′,1′-g][1]oxa[4,6,8]triazacycloundecine-11,11-d2] | 3.6 |  | 13 | 
12 | [2H]C1([2H])CCn2nc(Cl)c3cnc(nc32)Nc2c(nn(C3CCOCC3)c2C)O1 [Example 46, 8-Chloro-3-methyl-2-(tetrahydro-2H-pyran-4-yl)-2,4,12,13-tetrahydro-11H-5,7-(azenometheno)dipyrazolo[3,4-b:5′,1′-g][1]oxa[4,6,8]triazacycloundecine-13,13-d2] | 3.1 |  | 12 | 
13 | Cc1c2c(nn1CC1CCOCC1)OCCCn1nc(Cl)c3cnc(nc31)N2 [Example 49, 8-Chloro-3-methyl-2-((tetrahydro-2H-pyran-4-yl)methyl)-2,4,12,13-tetrahydro-11H-5,7-(azenometheno)dipyrazolo[3,4-b:5′,1′-g][1]oxa[4,6,8]triazacycloundecine] | 4.7 |  | 9.4 | 
